One data set concerns the target T1, 5-HT1A receptor (Rattus norvegicus, UniProt P19327).
T1 construct: on rat hippocampal membrane preparation; from tissue; host or cells: rat hippocampus membranes
T1 sequence (P19327 1-422): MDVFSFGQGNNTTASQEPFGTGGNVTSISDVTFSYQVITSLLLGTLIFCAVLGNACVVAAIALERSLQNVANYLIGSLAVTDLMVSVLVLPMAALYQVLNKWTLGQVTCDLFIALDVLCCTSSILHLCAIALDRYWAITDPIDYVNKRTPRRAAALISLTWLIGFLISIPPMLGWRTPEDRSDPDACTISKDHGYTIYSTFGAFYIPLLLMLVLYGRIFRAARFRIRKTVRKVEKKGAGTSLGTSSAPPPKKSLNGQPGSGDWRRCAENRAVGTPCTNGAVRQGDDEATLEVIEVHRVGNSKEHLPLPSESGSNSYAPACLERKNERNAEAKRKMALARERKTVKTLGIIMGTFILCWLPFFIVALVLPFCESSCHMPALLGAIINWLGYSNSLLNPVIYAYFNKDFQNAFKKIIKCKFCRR
Put plainly: 5-HT1A binding ([3H]8-OH-DPAT, rat hippocampal membrane). The note with it: [3H]8-hydroxy-2-(di-n-propylamino)-tetralin. The method, then: The non-specific binding was determined in the presence of 10 μM serotonin creatinine sulphate.

In a further data set the test system is Male CD-1 mice. Put plainly: Inhibition of apomorphine induced climbing. In kind it is in vivo. The note with it: for ED50: Mus musculus; for ranking of activity in apomorphine climbing assay: apomorphine climbing in mice. The method, then: With respect to the expected clinical application of the compounds of the present invention in addition to their receptor binding profile their in vivo efficacy is a crucial issue as well. Therefore, in vivo potency and efficacy of the compounds of formula (I) were studied in the apomorphine climbing assay, an animal screening test for antipsychotic activity.
5. Inhibition of Apomorphine Induced Climbing
Male CD-1 mice weighing 20-25 g were injected orally (n=12) with the test compound or vehicle. Fifty minutes later the animals were placed into cylindrical cages with walls of vertical metal bars. After 10 minutes habituation the mice were treated with apomorphine (1.5 mg/kg sc.). […] Scores were summed for each individual and group means were calculated. Drug effect was expressed and plotted as percentage inhibition of the apomorphine induced behaviour.

The target of another data set is D2 receptor (Rattus norvegicus, UniProt P61169). Description: D2 receptor binding ([3H]spiperone, rat brain striatal membrane). The method, then: Non-specific binding was determined in the presence of 1 μM (+) butaclamol.
Sequence of D2 receptor (P61169 1-415 isoform P61169-2): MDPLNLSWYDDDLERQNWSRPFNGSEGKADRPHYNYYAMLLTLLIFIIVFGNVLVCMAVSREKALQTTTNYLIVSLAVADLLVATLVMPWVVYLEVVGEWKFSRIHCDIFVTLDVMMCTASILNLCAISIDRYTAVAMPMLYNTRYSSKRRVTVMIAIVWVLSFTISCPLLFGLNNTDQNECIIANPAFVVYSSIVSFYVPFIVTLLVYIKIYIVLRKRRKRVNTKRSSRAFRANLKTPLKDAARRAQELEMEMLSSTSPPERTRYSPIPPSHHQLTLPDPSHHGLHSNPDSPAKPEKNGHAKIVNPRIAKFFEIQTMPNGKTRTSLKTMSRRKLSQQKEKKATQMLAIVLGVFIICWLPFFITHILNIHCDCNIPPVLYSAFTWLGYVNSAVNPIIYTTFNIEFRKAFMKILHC
For the next data set, the target named is α1 receptor. Put plainly: α-1 receptor binding ([3H]-prazosine, rat cortical membrane). The method, then:
α1 receptor binding study was performed according to the methods described by Greengrass and Bremner (Eur. J. Pharmacol., 55:323-326, 1979) on rat cortical membrane preparation using [^3H]-prazosine (0.22-0.37 nM) as ligand. The non-specific binding was determined in the presence of 10 μM phentolamine.

Data set [1] has as its target T2, rat recombinant D3 receptors (Rattus norvegicus, UniProt P19020).
T2 construct: purchased Perkin-Elmer 6110139; host or cells: Sf9 cells
Description: D3 receptor binding ([3H]spiperone). The note with it: rat recombinant D3 receptors expressed in Sf9 cells.

The structures appear in SMILES notation.

For orientation: IC50 means the concentration at which inhibition is half-maximal. The term ED50 denotes the dose at which the effect has come halfway, by size or by number of responders. A higher ED50 goes with a need for a large dose. As a reminder, the melting point is the temperature, or range, at which the solid turns liquid.

T2 sequence (P19020 whole entry): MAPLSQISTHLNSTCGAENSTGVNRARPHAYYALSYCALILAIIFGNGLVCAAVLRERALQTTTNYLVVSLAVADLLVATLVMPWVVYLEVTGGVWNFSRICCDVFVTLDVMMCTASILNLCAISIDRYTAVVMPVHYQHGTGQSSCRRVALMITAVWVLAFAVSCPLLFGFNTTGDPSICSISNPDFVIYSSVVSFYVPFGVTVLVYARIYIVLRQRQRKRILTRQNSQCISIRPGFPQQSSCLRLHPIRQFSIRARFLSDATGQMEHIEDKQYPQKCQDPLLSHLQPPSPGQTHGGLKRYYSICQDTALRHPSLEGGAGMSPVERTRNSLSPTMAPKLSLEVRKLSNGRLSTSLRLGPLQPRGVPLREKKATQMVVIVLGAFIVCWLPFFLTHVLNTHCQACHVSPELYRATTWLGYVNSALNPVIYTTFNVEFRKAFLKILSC

`CCNC(=O)N[C@H]1CC[C@H](CCN2CCN(c3cccc4c3CCC4)CC2)CC1` [Compound 5, trans-1-{4-[2-[4-(indan-4-yl)-piperazin-1-yl]-ethyl]-cyclohexyl}-3-ethyl-urea] showed a melting point of 198 to 200 °C. At 5-HT1A receptor, this compound displayed a half-maximal inhibitory concentration (IC50) of 0.001 to 0.02 µM. Moreover, the ED50 in the data set on Male CD-1 mice came out at 0.47 mg/kg. On D2 receptor, the IC50 is 0.01 to 0.04 µM. On α1 receptor, this compound displayed a 50% inhibitory concentration (IC50) of 0.04 to 0.2 µM. For the same compound, the IC50 in data set [1] is below 0.002 µM.
Compound `CN(C)C(=O)N[C@H]1CC[C@H](CCN2CCN(c3cccc4c3CCC4)CC2)CC1` [Compound 3, trans-1-{4-[2-[4-(indan-4-yl)-piperazin-1-yl]-ethyl]-cyclohexyl}-3,3-dimethyl-urea] registered a melting point of 150 to 152 °C. The compound also gave a 50% inhibitory concentration (IC50) on 5-HT1A receptor of 0.001 to 0.02 µM. Besides, in the data set on Male CD-1 mice, the 50% effective dose (ED50) stood at 0.11 mg/kg and the “ranking of activity in apomorphine climbing assay” value (from here on “ranking of activity”) is listed as “most active”. This compound also displayed an IC50 at D2 receptor of 0.01 to 0.04 µM. The IC50 at α1 receptor lay within 0.04 to 0.2 µM. The IC50 in data set [1] is below 0.002 µM.
Take `CC(=O)N[C@H]1CC[C@H](CCN2CCN(c3cccc4c3CCCC4)CC2)CC1` [Compound 9, trans-N-{4-[2-[4-(5,6,7,8-tetrahydronaphthalen-1-yl)-piperazin-1-yl]-ethyl]-cyclohexyl}-acetamide]: the melting point was in the range of 187 to 189 °C. Moreover, on 5-HT1A receptor, the IC50 was 0.001 to 0.02 µM. Also, the 50% effect level in the data set on Male CD-1 mice (ED50) was put at a dose of 0.26 mg/kg. The concentration for half-maximal inhibition (IC50) on D2 receptor lay in the range of 0.01 to 0.04 µM. Also, the half-maximal inhibitory concentration (IC50) at α1 receptor was above 0.2 µM. In addition, the IC50 in data set [1] was below 0.002 µM.
Take `CCC(=O)N[C@H]1CC[C@H](CCN2CCN(c3cccc4c3CCCC4)CC2)CC1` [Compound 10, trans-N-{4-[2-[4-(5,6,7,8-tetrahydronaphthalen-1-yl)-piperazin-1-yl]-ethyl]-cyclohexyl}-propionamide]: the melting point was 182 to 185 °C. The compound further displayed a half-inhibitory concentration (IC50) on 5-HT1A receptor of 0.001 to 0.02 µM. The ED50 in the data set with Male CD-1 mice stood at 0.35 mg/kg. This compound also displayed an IC50 on D2 receptor of 0.01 to 0.04 µM. Moreover, the IC50 on α1 receptor was above 0.2 µM. Further, the IC50 in data set [1] is below 0.002 µM.
Regarding `CN(C)C(=O)N[C@H]1CC[C@H](CN2CCN(c3cccc4c3CCC4)CC2)CC1` [Compound 8, trans-1-{4-[[4-(indan-4-yl)-piperazin-1-yl]-methyl]-cyclohexyl}-3,3-dimethyl-urea], the melting point was 152 to 154 °C.
Take `Cc1cc2c(s1)Nc1ccccc1N=C2N1CCN(C)CC1` [Olanzapine, reference compound]: in the data set with Male CD-1 mice, the ED50 was 1.3 mg/kg.
As to `O=C(N[C@H]1CC[C@H](CCN2CCN(c3cccc4c3CCCC4)CC2)CC1)N1CCOCC1` [Compound 12, trans-N-{4-[2-[4-(5,6,7,8-tetrahydronaphthalen-1-yl)-piperazin-1-yl]-ethyl]-cyclohexyl}-morpholine-4-carboxamide], the melting point is 178 to 180 °C. This compound also yielded a half-maximal inhibitory concentration (IC50) on 5-HT1A receptor of 0.001 to 0.02 µM. Besides, the 50% effective dose (ED50) in the data set on Male CD-1 mice stood at 0.2 mg/kg. Moreover, the IC50 at D2 receptor was in the range of 0.01 to 0.04 µM. Besides, the half-maximal inhibitory concentration (IC50) on α1 receptor was 0.04 to 0.2 µM. Besides, the IC50 in data set [1] is below 0.002 µM.
Consider `O=C1CCc2ccc(OCCCCN3CCN(c4cccc(Cl)c4Cl)CC3)cc2N1` [Aripiprazole, reference compound], for which the 50% effect level with Male CD-1 mice (ED50) was put at a dose of 1 mg/kg.
Turning to `O=C(N[C@H]1CC[C@H](CCN2CCN(c3cccc4c3CCC4)CC2)CC1)N1CCOCC1` [Compound 6, trans-N-{4-[2-[4-(indan-4-yl)-piperazin-1-yl]-ethyl]-cyclohexyl}-morpholine-4-carboxamide], the melting point lay in the range of 181 to 182 °C. On 5-HT1A receptor, this compound showed a 50% inhibitory concentration (IC50) of 0.001 to 0.02 µM. In the data set with Male CD-1 mice, it took a dose of 0.16 mg/kg to reach the 50% effect level (ED50) and the “ranking of activity” value is “most active”. For the same compound, the IC50 at D2 receptor lay within 0.01 to 0.04 µM. Further, at α1 receptor, the IC50 is 0.04 to 0.2 µM. Moreover, the IC50 in data set [1] was below 0.002 µM.
As to `CC(=O)N[C@H]1CC[C@H](CCN2CCN(c3cccc4c3CCC4)CC2)CC1` [Compound 1, trans-N-{4-[2-[4-(indan-4-yl)-piperazin-1-yl]-ethyl]-cyclohexyl}-acetamide], the melting point was in the range of 202 to 204 °C. Besides, the IC50 at 5-HT1A receptor is 0.001 to 0.02 µM. For the same compound, in the data set on Male CD-1 mice, the 50% effect level (ED50) was put at a dose of 0.14 mg/kg and the “ranking of activity” value was “most active”. The compound further had an IC50 at D2 receptor of 0.01 to 0.04 µM. Besides, the IC50 at α1 receptor was in the range of 0.04 to 0.2 µM. For the same compound, the IC50 in data set [1] was below 0.002 µM.
In turn, `CCC(=O)N[C@H]1CC[C@H](CCN2CCN(c3cccc4c3CCC4)CC2)CC1` [Compound 2, trans-N-{4-[2-[4-(indan-4-yl)-piperazin-1-yl]-ethyl]-cyclohexyl}-propionamide] displayed a melting point of 194 to 196 °C. The IC50 at 5-HT1A receptor was 0.001 to 0.02 µM. This compound also had an ED50 with Male CD-1 mice of 0.21 mg/kg. In addition, at D2 receptor, the half-maximal inhibitory concentration (IC50) fell in the range of 0.01 to 0.04 µM. Moreover, at α1 receptor, the IC50 lay in the range of 0.04 to 0.2 µM. Besides, in data set [1], the half-inhibitory concentration (IC50) is below 0.002 µM.
Regarding `CN(C)C(=O)N[C@H]1CC[C@H](CCN2CCN(c3cccc4c3CCCC4)CC2)CC1` [Compound 11, trans-1-{4-[2-[4-(5,6,7,8-tetrahydronaphthalen-1-yl)-piperazin-1-yl]-ethyl]-cyclohexyl}-3,3-dimethyl-urea], the melting point lay in the range of 190 to 193 °C. The compound further showed an IC50 on 5-HT1A receptor of 0.001 to 0.02 µM. In the data set with Male CD-1 mice, this compound returned an ED50 of 0.23 mg/kg. On D2 receptor, this compound showed a 50% inhibitory concentration (IC50) of 0.01 to 0.04 µM. Moreover, the IC50 on α1 receptor lay within 0.04 to 0.2 µM. In addition, the half-inhibitory concentration (IC50) in data set [1] is below 0.002 µM.
As to `NC(=O)N[C@H]1CC[C@H](CCN2CCN(c3cccc4c3CCC4)CC2)CC1` [Compound 7, trans-1-{4-[2-[4-(indan-4-yl)-piperazin-1-yl]-ethyl]-cyclohexyl}-urea], the melting point lay within 204 to 206 °C.
Compound `CCN(CC)C(=O)N[C@H]1CC[C@H](CCN2CCN(c3cccc4c3CCC4)CC2)CC1` [Compound 4, trans-1-{4-[2-[4-(indan-4-yl)-piperazin-1-yl]-ethyl]-cyclohexyl}-3,3-diethyl-urea] registered a melting point of 157 to 159 °C. Also, the IC50 on 5-HT1A receptor lay in the range of 0.001 to 0.02 µM. Besides, the 50% effective dose (ED50) in the data set on Male CD-1 mice worked out at 0.46 mg/kg. Further, the IC50 at D2 receptor lay in the range of 0.01 to 0.04 µM. This compound registered an IC50 on α1 receptor of 0.04 to 0.2 µM. Moreover, in data set [1], the IC50 is below 0.002 µM.

Values taken from patent US7705003B2, “Cyclohexylamides as dopamine D3, D2 and 5-HT1A Antagonists” (Richter Gedeon Vegyeszeti Gyar RT., priority 2005, dated 2010).
